Measurements as given in US12342842B2, “Preparation for use in enhancing formation of short-chain fatty acids (SCFAs)” (Evonik Operations GmbH, priority 2019, dated 2025).

What was measured:
human colonic microbiota [1] = experiment: I-screen fermentation, SCFA analysis with omega-3 amino acid salts, FFA and amino acids (Examples 5 and 6); format: cell-based; conditions: salts 1.4 mg/ml; for Iso-butyrate / Iso-valerate: 24 h in SIEM, FFA 0.95 mg/ml, amino acids 0.5 mg/ml, means of triplicates; for Iso-butyrate: control 1.21; for Iso-valerate: control 2.74; for Propionate/acetate ratio / Propionate / Acetate: FFA 0.96 mg/ml, L-lysine 0.49, L-arginine 0.52, L-ornithine 0.5 mg/ml; for Propionate/acetate ratio: control 0.48; for Propionate: control 7.37; for Acetate: control 15.21
human colonic microbiota [2] = experiment: I-screen intestinal screening model, microbiota composition by V4 16S rRNA gene sequencing (Example 1); format: cell-based; conditions: omega-3-lys, EE, fish oil 1.4 mg/ml, inulin 4 mg/ml, means of triplicates
Text: To determine the effect of omega-3 compounds on adult colonic microbiota, an intestinal screening model was used (I-screen, TNO, the Netherlands), which corresponds to colonic environment. A translation of such in vitro experiment towards an application in a living organism (animal or human) requires the use of a colon-specific delivery form to circumvent absorption of fatty acids in upper parts of the gastrointestinal tract. The use of compositions comprising omega-3 compounds in formulations enabling a colon-specific delivery is part of the present invention. […]
The microbiota composition was analyzed by 16S rRNA gene amplicon sequencing of the V4 hypervariable region. […]
The amount of bacterial DNA in the i-screen DNA samples was determined by quantitative polymerase chain reaction (qPCR) using primers specific for the bacterial 16S rRNA gene: Forward primer: CGAAAGCGTGGGGAGCAAA; Reverse primer: GTTCGTACTCCCCAGGCGG; Probe: 6FAM-[…]-MGB.
Subsequently, PCR amplicons of the V4 hypervariable region of the 16S rRNA gene were generated for the individual samples by amplification of 500 pg of DNA as described by Kozich et al. (2013), using F515/R806 primers (Caporaso et al. 2011). […] The amount of amplified DNA per sample was quantified using the dsDNA 910 Reagent Kit on the Fragment Analyzer (Advanced Analytical). […]

Compound	Iso-butyrate (human colonic microbiota [1])	Iso-valerate (human colonic microbiota [1])	Propionate/acetate ratio (human colonic microbiota [1])	Propionate (human colonic microbiota [1])	Acetate (human colonic microbiota [1])	Effect on colonic microbiota after 24 h incubation (variance explained versus control) (human colonic microbiota [2])
N=C(N)NCCC[C@H](N)C(=O)O [Arg, L-arginine]	1.21 mM	3.71 mM	0.40	9.39 mM	23.50 mM	–
NCCCC[C@H](N)C(=O)O [Lys, L-lysine]	1.47 mM	3.57 mM	0.40	9.49 mM	24.03 mM	–
NCCC[C@H](N)C(=O)O [Orn, L-ornithine]	1.37 mM	3.31 mM	0.36	9.11 mM	25.36 mM	–
inulin	–	–	–	–	–	40.2%
